In patent US10946059B2, “Formulation containing an extract of Alpinia galanga, a process for the preparation thereof, and uses thereof” (priority 2017, dated 2021):

Assays:
Assay type in all cases: in vivo, human
[1] = tested on: subjects (male and female) habituated to average caffeine consumption; assay: Attention Network Test (CRSD-ANT), Example 1: mean response time, alertness, orientation, executive attention; conditions: day 7 after IP, compared to placebo
Protocol: Only right-handed subjects were included in the study to avoid spatial bias. […] The subjects had to refrain from smoking 24 h before study onset and refrain from alcohol intake throughout the study. Subjects with a history or presence of clinically important cardiac, renal, hepatic, endocrine (including diabetes mellitus), pulmonary, biliary, gastrointestinal, pancreatic, or neurological disorders and uncontrolled hypertension were excluded from the study. For each subject, the study was terminated after data collection on the assessment day. […] The IPs included Cymbopogon flexuosus (LG), water-soluble and water-insoluble extracts of Alpinia galanga (AG1 and AG2 respectively), and water-soluble and water-insoluble extracts of Glycyrrhiza glabra (GG1 and GG2 respectively). All interventions were administered to subjects in the form of identical capsules that had been packed in duly labeled HDPE bottles. […] The subjects were allowed to drink water as desired and allowed to relax in an isolated room at a comfortable temperature and were free to use a computer, listen to music, or read magazines during the clinic stay period. […] To ensure treatment compliance, product accountability was monitored by a clinical research coordinator on the following visit. […] Effects of IPs on different aspects of the attention network, such as alertness, orientation, and executive control, were also assessed by ANT. […]

[2] = tested on: healthy young volunteers; assay: Attention network test (ANT 1.3.0), mental alertness, Example 2
From the text: The subjects were then screened. […] The subjects with body mass index (BMI) between 18.50 and 25.00 kg/m2 and a resting blood pressure≤140/90 mm Hg were considered eligible. To avoid subjects with psychotic disorders such as anxiety, depression, ADD or ADHD, subjects with Generalized Anxiety Disorder Screening (GAD-7) score≥7 & Patient Health Questionnaire-9 (PHQ-9) score≥14 were excluded from the study. Subjects with alertness score (Jin Fan's Attention Network Test, version 1.3.0) of 50±20 milliseconds at screening visit were considered eligible. Concomitant therapy was strictly prohibited in order to exclude any significant effect on the results. All the subjects were instructed thoroughly on the investigation procedures.
Subjects reported to the clinic during the morning hours and testing began at early time of day (8:00-9:00 a.m.) for each visit to avoid influence of daily challenges (related to mental and physical stress) on outcomes and the time of day was matched for all three visits to reduce variability in response due to diurnal pattern. […] Subjects were also instructed to obtain sufficient sleep during the night prior to testing which was confirmed using sleep diary. Upon arrival at clinic, subjects were asked to rest quietly for 15-20 minutes after which vital parameters were measured and a standardized meal of approximately 200 calories was provided to control variations from possible digestion confounds. Baseline data were collected 30 minutes post breakfast followed by administration of IP, wherein one dose of the product was administered to subject by trial coordinator at investigational site.
Post ingestion of IP, data were collected at 1, 3, and 5 hours. No other food or calorie-containing beverages were provided. Subjects were allowed to drink water as desired. Subjects were allowed to relax in an isolated room at a comfortable temperature and free to use the computer, listen to music or read magazines during the clinic stay period. To analyze the effect on IP on sleep architecture, a second dose was supplied in a labeled bottle to be taken before dinner in the night of the same day and subjects were asked to record all the details pertaining to sleep quality and duration in sleep diary. To ensure treatment compliance, product accountability was monitored by clinical research coordinator on the following visit.
The primary efficacy variable was mental alertness. Alertness is defined as achieving and maintaining a state of high sensitivity to incoming stimuli. The Attention network test (ANT) was implemented for this purpose as it provides a behavioral measure of the efficiency of the different components of attention networks separately within a single task. The downloaded JAVA version of ANT 1.3.0 (Fan et al., 2002, 2005) was used to conduct the trial. The subject was seated in a silent and secluded room. All external distractions were avoided and subjects were asked to give complete attention to the task at hand. Mental alertness in ANT was calculated in terms of difference score quantified in milliseconds and calculated by subtracting average double-cue RTs from the no-cue RTs. […]

[3] = tested on: healthy young volunteers; assay: Psychomotor Vigilance Task (PVT), sustained attention, Example 2; conditions: mean ± SD
From the text: Subjects were derived through multiple sources including a healthy volunteer's database and a consumer group's survey agency. The subjects were then screened. […] The subjects with body mass index (BMI) between 18.50 and 25.00 kg/m2 and a resting blood pressure≤140/90 mm Hg were considered eligible. To avoid subjects with psychotic disorders such as anxiety, depression, ADD or ADHD, subjects with Generalized Anxiety Disorder Screening (GAD-7) score≥7 & Patient Health Questionnaire-9 (PHQ-9) score≥14 were excluded from the study. […] Concomitant therapy was strictly prohibited in order to exclude any significant effect on the results. All the subjects were instructed thoroughly on the investigation procedures. Subjects were randomized and allocated to interventional products in each visit, divided in four treatment arms based on randomization chart [SPSS version 10.0, IBM] and similar trend was followed for subsequent visits. […] All these treatments were administered to subjects in the form of capsules which were identical in appearance and packed in duly labeled HDPE bottles. The blinding codes were secured at the site in tamper-evident sealed envelopes with no access to the investigators. Thus, the double blind nature of the data were ensured and strictly followed. […] Composition details of all these IPs are: Subjects reported to the clinic during the morning hours and testing began at early time of day (8:00-9:00 a.m.) for each visit to avoid influence of daily challenges (related to mental and physical stress) on outcomes and the time of day was matched for all three visits to reduce variability in response due to diurnal pattern. […] Subjects were also instructed to obtain sufficient sleep during the night prior to testing which was confirmed using sleep diary. Upon arrival at clinic, subjects were asked to rest quietly for 15-20 minutes after which vital parameters were measured and a standardized meal of approximately 200 calories was provided to control variations from possible digestion confounds. […] Post ingestion of IP, data were collected at 1, 3, and 5 hours. No other food or calorie-containing beverages were provided. Subjects were allowed to drink water as desired. Subjects were allowed to relax in an isolated room at a comfortable temperature and free to use the computer, listen to music or read magazines during the clinic stay period. […] To ensure treatment compliance, product accountability was monitored by clinical research coordinator on the following visit. […] The mean MRT was calculated in milliseconds, which is the time a subject took to press the response button as soon as each stimulus appeared. […]

Cn1c(=O)c2c(ncn2C)n(C)c1=O [Caffeine, caffeine]
alertness [1]: decrease in alertness compared to the placebo group | ANT-Alertness (Mental Alertness) score ([2]; 1H: value at 1 hour, PP population, mean ± SD): 57.0 ± 18.1 ms | increase in alertness score from baseline ([2]; at one hour): 8.97 ± 18.20 ms | decrease in alertness score from baseline ([2]; at three hours): 1.23 ± 18.60 ms | subjects that would exhibit higher alertness than the subjects in the placebo group ([2]; from Cohen's d): 47% | effect size in alertness score, Cohen's d ([2]; in comparison with placebo): 0.08 | PVT-Mean Response Time (Sustained Attention) ([3]; 1H: value at 1 hour): 290.1 ± 51.6 ms | PVT-Mean Response Time (Sustained Attention) ([3]; 3H: value at 3 hours): 287.6 ± 43.1 ms | PVT-Mean Response Time (Sustained Attention) ([3]; 5H: value at 5 hours): 296.9 ± 51.5 ms | PVT-Mean Response Time (Sustained Attention) ([3]; BL: baseline value): 310.4 ± 103.3 ms
